From patent publication US10800714B2, “Low VOC and low odor aromatic oil” (Dow Global Technologies LLC, priority 2015, dated 2020) come the findings set out here.

Assay type in all cases: physicochemical
Data set [1] in a line: NBPT mixture storage at −20° C. for 4 weeks (crystal formation, flowability). To be noted: solution free of crystal or flowable at −20° C. How it is done:
Recipe: 20 wt % NBPT/80 wt % Solvent
(§1) Each NBPT mixture is stored at three temperatures, room temperature (20-25° C.), 55° C., and −20° C. for 4 weeks to evaluate storage stability at elevated, ambient, and sub-ambient conditions. After 4 weeks of storage, the samples are visually inspected for (1) color, which is an indication of degradation, and (2) crystal formation, which is an indicator of insufficient solvency to carry 20 wt % NBPT.
(§2) NBPT is considered compatible with a solvent if the mixture remained clear, crystal free, and flowable at −20° C. for four weeks, and has little color (colorless or pale yellow) after four weeks at 55° C.

Data set [2] in a line: Compatibility of NBPT with solvent (storage study overall). Particulars: clear, crystal free, flowable at −20° C. for four weeks and little color after four weeks at 55° C.; 20 wt % NBPT. How it is done: as §1, §2
Data set [3] can be described thus: Solvent vapor pressure at 20° C. To be noted: neat solvent. How it is done: • (1) a vapor pressure of less than or equal to (≤) 0.01 millimeters of mercury (mmHg) at 20° C. as measured by ASTM E1719, • (2) a flash point equal to or greater than (≥) 200° F. (93° C.) as measured by ASTM D3278, • (3) a viscosity less than or equal to (≤) 200 centipoise (cP) at 25° C. as measured by ASTM D445, • (4) a hydroxyl number from 100 to 1,000 as measured by ASTM D4274, and • (5) a VOC content less of than or equal to (≤) 50 weight percent (wt %) as measured by ASTM D6886.
In one embodiment, the fertilizer stabilizer compositions of this invention have a low vapor pressure, typically less than or equal to (≤) 0.01 millimeters of mercury (mmHg), or ≤0.001 mmHg, or ≤0.0001 mmHg, at 20° C. as measured by ASTM E1719.
Only two glycol ethers are identified as compatible with NBPT: methyl CARBITOL™ (as described in WO 2014/028767 A1 and WO 2008/000196 A1, an alkyl glycol ether not of Formula 1, and a comparative sample) and DOWANOL™ EPh6 (a mixture of glycol ethers comprising at least two structures of Formula 1, and an inventive sample). […]

For `OCCOCCOc1ccccc1` [DOWANOL DiEPh], in data set [1], the “Solvency to carry 20 wt % NBPT” value is “not able to produce a NBPT mixture that provides sufficient solvency to carry 20 wt % NBPT”.

For `OCCOc1ccccc1` [DOWANOL EPh], in data set [1], the “Solvency to carry 20 wt % NBPT” value was “not able to produce a NBPT mixture that provides sufficient solvency to carry 20 wt % NBPT”.

Take `CC(O)COc1ccccc1` (stereo not drawn) [DOWANOL PPh]: in data set [1], the “Solvency to carry 20 wt % NBPT” value is listed as “not able to produce a NBPT mixture that provides sufficient solvency to carry 20 wt % NBPT”.

As for `COCCOCCO` [Methyl CARBITOL], in data set [2], the “Compatibility with NBPT” value is “compatible”. Besides, the “Vapor pressure mmHg at 20° C.” value in data set [3] was 0.23 mmHg; in data set [3] (listed as methyl CARBITOL™) it was greater than 0.1 mmHg.
